From patent publication US20260285850A1, “SUBSTITUTED OXAZOLIDINONES AND IMIDAZOLINONES AS HERBICIDES” (FMC CORPORATION, priority 2023, published 2026)

How the values were obtained:
Format in all cases: in vivo
[1] = system: barnyardgrass (Echinochloa crus-galli); assay: Test A preemergence soil spray, visual injury rating 0-100; conditions: 10 days
Outline: (§1)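 Loam-sand pots got test material in surfactant-containing solvent, either as a directed soil spray before emergence or on plants at the one- to two-leaf stage. Visual injury (0-100) was read after ten greenhouse days.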

[2] = system: blackgrass (Alopecurus myosuroides); assay: as above; conditions: 10 days
Outline: as §1

[3] = system: corn (Zea mays); assay: as above; conditions: 10 days
Outline: as §1

[4] = system: green foxtail (Setaria viridis); assay: as above; conditions: 10 days
Outline: as §1

[5] = system: kochia (Bassia scoparia); assay: as above; conditions: 10 days
Outline: as §1

[6] = system: oat, wild (wild oat, Avena fatua); assay: as above; conditions: 10 days
Outline: as §1

[7] = system: palmer (palmer amaranth, palmer pigweed, Amaranthus palmeri); assay: as above; conditions: 62 g ai/ha, 10 days, 0 = no effect, 100 = complete control
Outline: as §1

[8] = system: ragweed (common ragweed, Ambrosia artemisiifolia); assay: as above; conditions: 10 days
Outline: as §1

[9] = system: ryegrass, Italian (italian ryegrass, Lolium multiflorum); assay: as above; conditions: 10 days
Outline: as §1

[10] = system: soybean (Glycine max); assay: as above; conditions: 10 days
Outline: as §1

[11] = system: wheat (Triticum aestivum); assay: as above; conditions: 10 days
Outline: as §1

[12] = system: barnyardgrass (Echinochloa crus-galli); assay: Test A postemergence application, visual injury rating 0-100
Outline: as §1

[13] = system: blackgrass (Alopecurus myosuroides); assay: as above
Outline: as §1

[14] = system: corn (Zea mays); assay: as above
Outline: as §1

[15] = system: green foxtail (Setaria viridis); assay: as above
Outline: as §1

[16] = system: horseweed (Erigeron canadensis); assay: as above; conditions: 62 g ai/ha, postemergence, 10 days, 0 = no effect, 100 = complete control
Outline: as §1

[17] = system: kochia (Bassia scoparia); assay: as above
Outline: as §1

[18] = system: oat, wild (wild oat, Avena fatua); assay: as above
Outline: as §1

[19] = system: palmer (palmer amaranth, palmer pigweed, Amaranthus palmeri); assay: as above
Outline: as §1

[20] = system: ragweed (common ragweed, Ambrosia artemisiifolia); assay: as above
Outline: as §1

[21] = system: ryegrass, Italian (italian ryegrass, Lolium multiflorum); assay: as above
Outline: as §1

[22] = system: soybean (Glycine max); assay: as above
Outline: as §1

[23] = system: wheat (Triticum aestivum); assay: as above
Outline: as §1

[24] = system: barnyardgrass (Echinochloa crusgalli); assay: Test B flooded paddy test, visual plant response rating 0-100; conditions: 250 g ai/ha, Flood, applied to paddy water, evaluated after 13 days
Outline: (§2)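 Visual scores versus untreated controls were recorded 13 days after treatment of greenhouse-held plants. At the 2-leaf stage, pots were flooded 3 cm above the soil surface and compounds added straight to the water.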

[25] = system: ducksalad (Heteranthera limosa); assay: as above; conditions: 250 g ai/ha, Flood, applied to paddy water, evaluated after 13 days
Outline: as §2

[26] = system: rice (Oryza sativa); assay: as above; conditions: 250 g ai/ha, Flood, applied to paddy water, evaluated after 13 days
Outline: as §2

[27] = system: sedge, umbrella (small-flower umbrella sedge, Cyperus difformis); assay: as above; conditions: 250 g ai/ha, Flood, applied to paddy water, evaluated after 13 days
Outline: as §2

[28] = 62 g ai/ha, 0 = no effect, 100 = complete control
[29] = 62 g ai/ha, postemergence, 10 days, 0 = no effect, 100 = complete control
[30] = Postemergence, 16 g ai/ha, greenhouse 10 days, 0 no effect, 100 complete control

Compound: CC(C)OC(=O)C1=CCC(NC(=O)C2(C)CN(c3cc(Cl)cc(Cl)c3)C(=O)O2)C1 (stereo not drawn) [Compound 105]
- Barnyardgrass plant response rating ([1]; 16 g ai/ha, 0 to 100 scale): 0
- Barnyardgrass plant response rating (0-100) [1, 28]: 0
- Blackgrass plant response rating ([2]; 16 g ai/ha, 0 to 100 scale): 0
- Blackgrass plant response rating (0-100) [2, 28]: 0
- Corn plant response rating ([3]; 16 g ai/ha, 0 to 100 scale): 0
- Corn plant response rating (0-100) [3, 28]: 0
- Foxtail, Green plant response rating ([4]; 16 g ai/ha, 0 to 100 scale): 0
- Foxtail, Green plant response rating (0-100) [4, 28]: 0
- Kochia plant response rating ([5]; 16 g ai/ha, 0 to 100 scale): 0
- Kochia plant response rating (0-100) [5, 28]: 0
- Oat, Wild plant response rating ([6]; 16 g ai/ha, 0 to 100 scale): 0
- Oat, Wild plant response rating (0-100) [6, 28]: 0
- Pigweed, Palmer plant response rating (0-100) [7]: 10
- Ragweed plant response rating ([8]; 16 g ai/ha, 0 to 100 scale): 0
- Ragweed plant response rating (0-100) [8, 28]: 0
- Ryegrass, Italian plant response rating ([9]; 16 g ai/ha, 0 to 100 scale): 0
- Ryegrass, Italian plant response rating (0-100) [9, 28]: 0
- Soybean plant response rating ([10]; 16 g ai/ha, 0 to 100 scale): 0
- Soybean plant response rating (0-100) [10, 28]: 0
- Wheat plant response rating ([11]; 16 g ai/ha, 0 to 100 scale): 0
- Wheat plant response rating (0-100) [11, 28]: 0
- Barnyardgrass plant response rating (0-100) [12, 29]: 30
- Barnyardgrass plant response rating (0 to 100 scale) [12, 30]: 0
- Blackgrass plant response rating (0-100) [13, 29]: 10
- Blackgrass plant response rating (0 to 100 scale) [13, 30]: 0
- Corn plant response rating (0-100) [14, 29]: 10
- Corn plant response rating (0 to 100 scale) [14, 30]: 0
- Foxtail, Green plant response rating (0-100) [15, 29]: 0
- Foxtail, Green plant response rating (0 to 100 scale) [15, 30]: 0
- Horseweed plant response rating (0-100) [16]: 20
- Kochia plant response rating (0-100) [17, 29]: 0
- Kochia plant response rating (0 to 100 scale) [17, 30]: 0
- Oat, Wild plant response rating (0-100) [18, 29]: 0
- Oat, Wild plant response rating (0 to 100 scale) [18, 30]: 0
- Pigweed, Palmer plant response rating (0-100) [19, 29]: 10
- Pigweed, Palmer plant response rating (0 to 100 scale) [19, 30]: 0
- Ragweed plant response rating (0-100) [20, 29]: 0
- Ragweed plant response rating (0 to 100 scale) [20, 30]: 0
- Ryegrass, Italian plant response rating (0-100) [21, 29]: 0
- Ryegrass, Italian plant response rating (0 to 100 scale) [21, 30]: 0
- Soybean plant response rating (0-100) [22, 29]: 0
- Soybean plant response rating (0 to 100 scale) [22, 30]: 0
- Wheat plant response rating (0-100) [23, 29]: 0
- Wheat plant response rating (0 to 100 scale) [23, 30]: 0
- Plant response rating, Barnyardgrass (0 to 100 scale, 0 is no effect and 100 is complete control) [24]: 0
- Plant response rating, Ducksalad (0 to 100 scale, 0 is no effect and 100 is complete control) [25]: 0
- Plant response rating, Rice (0 to 100 scale, 0 is no effect and 100 is complete control) [26]: 0
- Plant response rating, Sedge, Umbrella (0 to 100 scale, 0 is no effect and 100 is complete control) [27]: 0
